Measured values taken from US8431593B2, “Heteroaryl amide derivatives” (H. Lundbeck A/S, priority 2006, dated 2013).
Where two headings read alike, the source gives them in different places. Each block holds one compound with its values, some of them ahead of it.

Biological target: T1, P2X7 receptor (Homo sapiens, UniProt Q99572)
T1 construct: host or cells: SH-SY5Y
T1 sequence (Q99572 1-595): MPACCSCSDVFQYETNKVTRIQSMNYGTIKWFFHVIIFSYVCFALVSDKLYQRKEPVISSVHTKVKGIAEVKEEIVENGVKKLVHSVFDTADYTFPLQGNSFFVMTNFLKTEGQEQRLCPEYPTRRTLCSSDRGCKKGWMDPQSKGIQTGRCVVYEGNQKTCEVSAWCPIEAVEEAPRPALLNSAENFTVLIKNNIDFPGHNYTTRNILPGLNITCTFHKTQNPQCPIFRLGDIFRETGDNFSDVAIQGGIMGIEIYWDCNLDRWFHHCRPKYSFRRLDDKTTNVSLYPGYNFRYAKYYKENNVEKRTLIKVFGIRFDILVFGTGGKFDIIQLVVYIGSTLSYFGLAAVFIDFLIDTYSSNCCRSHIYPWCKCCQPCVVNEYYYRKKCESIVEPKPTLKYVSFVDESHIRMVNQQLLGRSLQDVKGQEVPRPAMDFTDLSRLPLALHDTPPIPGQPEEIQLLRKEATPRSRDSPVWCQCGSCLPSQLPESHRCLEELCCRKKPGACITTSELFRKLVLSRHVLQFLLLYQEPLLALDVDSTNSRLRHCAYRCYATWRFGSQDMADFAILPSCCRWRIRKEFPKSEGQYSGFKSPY
Experiment: P2X7 calcium mobilization assay, high throughput, antagonist activity (Example 4A)
Assay type: cell-based
Details: read-out: IC50
Procedure, shortened: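 Cells plated at 100,000/well the day before were dye-loaded for 1 h, then incubated 1 h at room temperature with test compound before agonist-triggered calcium mobilization was read on FLIPR Tetra. Maximum RFU was corrected by subtracting the no-agonist control and related to the agonist-control response.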

[1] = 50% decrease in the fluorescence response of cells exposed to 80 μM of 2′(3′)-O-(4-benzoyl-benzoyl)adenosine 5′-triphosphate, Example 4A
[2] = SH-SY5Y cells, 50% decrease in fluorescence response to 80 μM BzATP
[3] = 50% decrease in the fluorescence response of cells exposed to 80 μM 2′(3′)-O-(4-benzoyl-benzoyl)adenosine 5′-triphosphate, Example 4A
[4] = 50% decrease in the fluorescence response of cells exposed to 80 μM of 2′(3′)-O-(4-benzoyl-benzoyl)adenosine 5′-triphosphate, determined as in Example 4A
[5] = P2X7 calcium mobilization, Example 4A, 50% decrease in the fluorescence response of cells exposed to 80 μM of (2′(3′)-O-(4-benzoyl-benzoyl)adenosine 5′-triphosephate)
[6] = fluorescence response of cells exposed to 80 μM 2′(3′)-O-(4-benzoyl-benzoyl)adenosine 5′-triphosphate, Example 4A

- IC50 [4]: < 2000 nM
Compound: O=C(NCC1(c2ccc(F)cc2)CCCCC1)c1cccc2nc(CC(Cc3ccccc3)C(=O)O)cn12 (centres unmarked) [Compound 1012, 2-benzyl-3-[5-({[1-(4-fluorophenyl)cyclohexyl]methyl}carbamoyl)imidazo[1,2-a]pyridin-2-yl]propanoic acid]

- IC50 [1]: < 2000 nM
Compound: COC(=O)C(Cc1cn2c(C(=O)NCC34CC5CC(CC(C5)C3)C4)cccc2n1)c1ccccn1 (centres unmarked) [Compound 758, methyl 3-{5-[(adamantan-1-ylmethyl)carbamoyl]imidazo[1,2-a]pyridin-2-yl}-2-pyridin-2-ylpropanoate]

- IC50 [4]: < 2000 nM
Compound: CC(C)CC(CNC(=O)c1cccc2nc(CC(=O)N3CCC[C@@H](N)C3)cn12)c1ccc(Cl)cc1 (stereo partly drawn) [Compound 839, 2-{2-[(3R)-3-aminopiperidin-1-yl]-2-oxoethyl}-N-[2-(4-chlorophenyl)-4-methylpentyl] imidazo[1,2-a] pyridine-5-carboxamide]

- IC50 [4]: < 2000 nM
Compound: CC(C)CC(CNC(=O)c1cccc2nc(CC(Cc3ccccc3)C(=O)O)cn12)c1ccc(C(F)(F)F)cc1 (centres unmarked) [Compound 1008, 2-benzyl-3-[5-({4-methyl-2-[4-(trifluoromethyl)phenyl]pentyl}carbamoyl)imidazo[1,2-a]pyridin-2-yl] propanoic acid]

- IC50 [5]: < 2000 nM
Compound: Cc1ccc(C2(CNC(=O)c3cccc4nc(CN5CCCC5)cn34)CCCCC2)cc1 [Compound 1049, N-{[1-(4-methylphenyl)cyclohexyl]methyl}-2-(pyrrolidin-1-ylmethyl) imidazo[1,2-a]pyridine-5-carboxamide]

- IC50 [4]: < 2000 nM
Compound: O=C(NCC12CC3CC(CC(C3)C1)C2)c1cccc2nc(Cn3nnnc3CCO)cn12 [Compound 855, N-(adamantan-1-ylmethyl)-2-{[5-(2-hydroxyethyl)-1H-tetrazol-1-yl]methyl}imidazo [1,2-a]pyridine-5-carboxamide]

- IC50 [1]: < 2000 nM
Compound: O=C(NCC12CC3CC(CC(C3)C1)C2)c1cccc2nc(C(Cc3ccccc3)C(=O)O)cn12 (centres unmarked) [Compound 755, 2-{5-[(adamantan-1-ylmethyl)carbamoyl]imidazo[1,2-a]pyridin-2-yl}-3-phenylpropanoic acid]

- IC50 [5]: < 2000 nM
Compound: O=C(NCC1(c2ccc(Cl)cc2)CCCCC1)c1cccc2nc(CN3CCCC3)cn12 [Compound 1047, N-{[1-(4-chlorophenyl)cyclohexyl]methyl}-2-(pyrrolidin-1-ylmethyl) imidazo[1,2-a]pyridine-5-carboxamide]

- IC50 [4]: < 2000 nM
Compound: CC(C)CC(CNC(=O)c1cccc2nc(CC(=O)O)cn12)c1ccc(Cl)cc1 (centres unmarked) [Compound 964, (5-{[2-(4-chlorophenyl)-4-methylpentyl]carbamoyl}imidazo[1,2-a]pyridin-2-yl) acetic acid]

- IC50 [4]: < 2000 nM
Compound: O=C(Cc1cn2c(C(=O)NCC34CC5CC(CC(C5)C3)C4)cccc2n1)N[C@H]1CCNC1 [Compound 911, N-(adamantan-1-ylmethyl)-2-{2-oxo-2-[(3S)-pyrrolidin-3-ylamino]ethyl} imidazo [1,2-a]pyridine-5-carboxamide]

- IC50 [4]: < 2000 nM
Compound: CCCC(C(=O)OCC)c1cn2c(C(=O)NCC34CC5CC(CC(C5)C3)C4)cccc2n1 (centres unmarked) [Compound 905, ethyl 2-{5-[(adamantan-1-ylmethyl)carbamoyl]imidazo[1,2-a]pyridin-2-yl}pentanoate]

Continued, compound first:

Compound: CN1CCCCC1CNC(=O)c1cn2c(C(=O)NCC34CC5CC(CC(C5)C3)C4)cccc2n1 (centres unmarked) [Compound 666, 5-N-(adamantan-1-ylmethyl)-2-N-[(1-methylpiperidin-2-yl)methyl]imidazo[1,2-a]pyridine-2,5-dicarboxamide]
- IC50 [1]: < 2000 nM

Compound: O=C(Cc1cn2c(C(=O)NCC34CC5CC(CC(C5)C3)C4)cccc2n1)NC1CCCC1 [Compound 153, N-(adamantan-1-ylmethyl)-2-[2-(cyclopentylamino)-2-oxoethyl]imidazo[1,2-a]pyridine-5-carboxamide]
- IC50 [2]: < 2000 nM

Compound: COCCN(C(=O)Cc1cn2c(C(=O)NC[C@@H]3CC[C@@H]4C[C@H]3C4(C)C)cccc2n1)C1CCNCC1(C)C (stereo partly drawn) [Compound 573, N-{[(1R,2R,5R)-6,6-dimethylbicyclo[3.1.1]hept-2-yl]methyl}-2-{2-[(3,3-dimethyl-piperidin-4-yl)(2-methoxyethyl)amino]-2-oxoethyl}imidazo [1,2-a]pyridine-5-carboxamide]
- IC50 [3]: < 2000 nM

Compound: O=C(Cc1cn2c(C(=O)NCC34CC5CC(CC(C5)C3)C4)cccc2n1)NCC(F)(F)F [Compound 158, N-(adamantan-1-ylmethyl)-2-{2-oxo-2-[(2,2,2-trifluoroethyl)amino]eth-yl}imidazo[1,2-a]pyridine-5-carboxamide]
- IC50 [2]: < 2000 nM

Compound: CC(NC(=O)Cc1cn2c(C(=O)NCC34CC5CC(CC(C5)C3)C4)cccc2n1)C(N)=O (centres unmarked) [Compound 25, N-(adamantan-1-ylmethyl)-2-{2-[(2-amino-1-methyl-2-oxoethyl)amino]-2-oxoethyl}imidazo[1,2-a]pyridine-5-carboxamide]
- IC50 [2]: < 2000 nM

Compound: COCCN(C)C(=O)CNC(=O)c1cn2c(C(=O)NCC34CC5CC(CC(C5)C3)C4)cccc2n1 [Compound 75, 5-N-(adamantan-1-ylmethyl)--{2-[(2-methoxy-ethyl)(methyl)amino]-2-oxoethyl}imidazo[1,2-a]pyridine-2,5-dicarboxamide]
- IC50 [2]: < 2000 nM

Compound: O=C(NCC12CC3CC(CC(C3)C1)C2)c1cccc2nc(CC(=O)N3CCCC(O)C3)cn12 (centres unmarked) [Compound 53, N-(adamantan-1-ylmethyl)-2-[2-(3-hydroxypiperidin-1-yl)-2-oxoethyl]imidazo[1,2-a]pyridine-5-carboxamide]
- IC50 [2]: < 2000 nM

Compound: NC1CCCN(Cc2cn3c(C(=O)NCC45CC6CC(CC(C6)C4)C5)cccc3n2)C1 (centres unmarked) [Compound 121, N-(adamantan-1-ylmethyl)-2-[(3-aminopiperidin-1-yl)methyl]imidazo[1,2-a]pyridine-5-carboxamide]
- IC50 [2]: < 2000 nM

Compound: CCN(Cc1cn2c(C(=O)NCC34CC5CC(CC(C5)C3)C4)cccc2n1)C(=O)c1ncc[nH]1 [Compound 551, N-(adamantan-1-ylmethyl)-2-{[ethyl(1H-imidazol-2-ylcarbonyl)amino]methyl}imidazo[1,2-a]pyridine-5-carboxamide]
- IC50 [3]: < 2000 nM

Compound: CCC(COC)NC(=O)Cc1cn2c(C(=O)NCC34CC5CC(CC(C5)C3)C4)cccc2n1 (centres unmarked) [Compound 160, N-(adamantan-1-ylmethyl)-2-(2-{[1-(methoxymethyl)pro-pyl]amino}-2-oxoethyl)imidazo[1,2-a]pyridine-5-carboxamide]
- IC50 [2]: < 2000 nM

Compound: CCOC(=O)N1CCN(C(=O)c2cn3c(NC(=O)CC45CC6CC(CC(C6)C4)C5)cccc3n2)CC1 [Compound 356, ethyl 4-({5-[(adamantan-1-ylacetyl)amino]imidazo [1,2-a]pyridin-2-yl}carbonyl) piperazine-1-carboxylate]
- IC50 [6]: < 2000 nM

Compound: CCOC(=O)Cc1cn2c(C(=O)NC(C)C34CC5CC(CC(C5)C3)C4)cccc2n1 (centres unmarked) [Compound 281, ethyl {5-[(1-adamantan-1-ylethyl)carbamoyl]imidazo[1,2-a]pyridin-2-yl}acetate]
- IC50 [6]: < 2000 nM

Compound: O=C(NCC12CC3CC(CC(C3)C1)C2)c1cccc2nc(CCNC3CCNCC3)cn12 [Compound 119, 2-[2-(piperidin-4-ylamino)-ethyl]-imidazo[1,2-a]pyridine-5-carboxylic acid (adamantan-1-ylmethyl)-amide]
- IC50 [2]: < 2000 nM

Compound: CC(C)NCc1cn2c(C(=O)NCC34CC5CC(CC(C5)C3)C4)cccc2n1 [Compound 597, N-(adamantan-1-ylmethyl)-2-[(isopropylamino)methyl]imidazo [1,2-a]pyridine-5-carboxamide]
- IC50 [3]: < 2000 nM

Compound: N[C@H]1CCN(C(=O)Cc2cn3c(C(=O)NCC45CC6CC(CC(C6)C4)C5)cccc3n2)C1 (stereo in doubt) [Compound 144, N-(adamantan-1-ylmethyl)-2-[2-(3-aminopyrrolidin-1-yl)-2-oxoethyl]imidazo[1,2-a]pyridine-5-carboxamide]
- IC50 [2]: < 2000 nM

Compound: CC(C)CC(CNC(=O)c1cccc2nc(CN3CCOCC3)cn12)C1CCCCC1 (centres unmarked) [Compound 687, N-(2-cyclohexyl-4-methylpentyl)-2-(morpholin-4-ylmethyl)imidazo[1,2-a]pyridine-5-carboxamide]
- IC50 [1]: < 2000 nM

Compound: CCCCN(CCO)C(=O)c1cn2c(NC(=O)CC34CC5CC(CC(C5)C3)C4)cccc2n1 [Compound 412, 5-[(adamantan-l-ylacetyl)amino]-N-butyl-N-(2-hydroxyethyl)imidazo [1,2-a]pyridine-2-carboxamide]
- IC50 [6]: < 2000 nM

Compound: O=C(O)c1ccn(Cc2cn3c(C(=O)NCC45CC6CC(CC(C6)C4)C5)cccc3n2)c(=O)c1 [Compound 355, 1-({5-[(adamantan-1-ylmethyl)carbamoyl]imidazo[1,2-a]pyridin-2-yl}methyl)-2-oxo-1,2-dihydropyridine-4-carboxylic acid]
- IC50 [6]: < 2000 nM
